12 molecules from US20250302815A1, “PROTEIN TYROSINE PHOSPHATASE TARGETING LIGANDS” (CALICO LIFE SCIENCES LLC, priority 2021, published 2025) can be followed below.

Assay [1] deals with T1, PTPN2 (HiBIT-PTPN2 in 293T.109 cells) (Homo sapiens, UniProt P17706).
T1 construct: expressed in transfected cells; host or cells: 293T.109 (293T WT from ATCC)
T1 sequence (P17706 1-415): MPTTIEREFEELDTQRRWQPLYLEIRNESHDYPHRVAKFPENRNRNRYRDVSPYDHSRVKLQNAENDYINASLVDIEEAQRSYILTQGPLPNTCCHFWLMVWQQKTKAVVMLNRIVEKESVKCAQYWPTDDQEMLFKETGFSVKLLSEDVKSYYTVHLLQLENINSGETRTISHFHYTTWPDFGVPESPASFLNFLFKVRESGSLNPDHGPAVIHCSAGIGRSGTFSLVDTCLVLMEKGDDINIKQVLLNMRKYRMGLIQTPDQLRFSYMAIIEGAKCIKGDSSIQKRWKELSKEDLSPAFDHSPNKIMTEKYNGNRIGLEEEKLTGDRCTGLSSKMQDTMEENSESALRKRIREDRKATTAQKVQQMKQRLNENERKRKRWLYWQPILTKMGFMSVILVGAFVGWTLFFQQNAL
In words: HiBiT Degradation 293T.109 PTPN2 (Nano-Glo HiBiT Lytic Assay). It counts as cell-based. The following applies: 24.0 hours. The method in brief:
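Degradation read-out: lytic HiBiT luminescence after 24 h treatment (37 °C, 5% CO2) of 5000 293T cells per well expressing HiBiT-fused PTPN2 from an N-terminal tag. Dosing was 11 points, half-log steps down from 10 μM, in duplicate; vehicle-treated and no-reagent wells served as controls.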
On the technique in general: With HiBiT, luminescence reflects the tagged protein that the partner subunit can reach.

Another assay has as its target T2, PTPN2 (B16F10.4 cells) (Mus musculus, UniProt Q06180).
T2 construct: HiBiT; host or cells: B16F10.4
T2 sequence (Q06180 1-406): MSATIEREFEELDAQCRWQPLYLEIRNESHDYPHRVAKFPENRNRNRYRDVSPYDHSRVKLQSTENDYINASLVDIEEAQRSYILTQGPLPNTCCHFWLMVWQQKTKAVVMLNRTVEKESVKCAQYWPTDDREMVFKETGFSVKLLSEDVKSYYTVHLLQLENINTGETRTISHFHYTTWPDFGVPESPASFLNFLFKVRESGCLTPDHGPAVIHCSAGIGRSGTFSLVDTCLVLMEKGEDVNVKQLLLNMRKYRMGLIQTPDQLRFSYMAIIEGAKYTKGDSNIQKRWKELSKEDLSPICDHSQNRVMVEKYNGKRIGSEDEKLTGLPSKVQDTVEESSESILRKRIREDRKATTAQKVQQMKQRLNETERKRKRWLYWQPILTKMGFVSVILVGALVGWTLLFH
Nature of the assay: HiBiT Degradation B16F10.4 PTPN2. It is filed as cell-based. Particulars: 24.0 hours.

Each structure is given as a SMILES string.

As usually defined, the DC50 is the concentration giving 50% degradation. Higher therefore signals degradation only at high concentration.

As to `Cn1c(=O)n(C2CCC(=O)NC2=O)c2ccc(C3CN(C(=O)Nc4cccc(CS(=O)(=O)N5CC[C@H](Nc6cccc(-c7sc(C(=O)O)c(OCC(=O)O)c7Cl)c6)CC5(C)C)c4)C3)cc21` (stereo partly drawn) [Example 106, 3-(carboxymethoxy)-4-chloro-5-[3-[[(4S)-1-[[3-[[3-[1-(2,6-dioxo-3-piperidyl)-3-methyl-2-oxo-benzimidazol-5-yl]azetidine-1-carbonyl]amino]phenyl]methylsulfonyl]-2,2-dimethyl-4-piperidyl]amino]phenyl]thiophene-2-carboxylic acid], the DC50 (in assay [1]; on PTPN2 (B16F10.4 cells)) was 50 to 200 nM each time.

Turning to `CC1(C)C[C@@H](Nc2cccc(-c3sc(C(=O)O)c(OCC(=O)O)c3Cl)c2F)CCN1S(=O)(=O)Cc1ccc(F)c(NC(=O)C2CN(C(=O)CNc3cccc4c3CN([C@@H]3CCC(=O)NC3=O)C4=O)C2)c1` (single isomer, unassigned) [Example 148a], the DC50 was < 50 nM in assay [1] and 200 to 1000 nM on PTPN2 (B16F10.4 cells).

In the case of `Cn1c(=O)n(C2CCC(=O)NC2=O)c2cc(F)c(C3CCN(C(=O)Nc4cccc(CS(=O)(=O)N5CC[C@H](Nc6cccc(-c7sc(C(=O)O)c(OCC(=O)O)c7Cl)c6)CC5(C)C)c4)CC3)cc21` (stereo partly drawn) [Example 153, 3-(carboxymethoxy)-4-chloro-5-[3-[[(4S)-1-[[3-[[4-[1-(2,6-dioxo-3-piperidyl)-6-fluoro-3-methyl-2-oxo-benzimidazol-5-yl]piperidine-1-carbonyl]amino]phenyl]methylsulfonyl]-2,2-dimethyl-4-piperidyl]amino]phenyl]thiophene-2-carboxylic acid], the results for the half-maximal degradation concentration (DC50) (in assay [1]; on PTPN2 (B16F10.4 cells)) were 50 to 200 nM and 200 to 1000 nM, respectively.

For the molecule `Cn1c(=O)n(C2CCC(=O)NC2=O)c2ccc3c(c21)CCCN3C1CCN(C(=O)Nc2cccc(CS(=O)(=O)N3CC[C@H](Nc4cccc(-c5sc(C(=O)O)c(OCC(=O)O)c5Cl)c4)CC3(C)C)c2)CC1` (stereo partly drawn) [Example 222, 3-(carboxymethoxy)-4-chloro-5-[3-[[(4S)-1-[[3-[[4-[3-(2,6-dioxo-3-piperidyl)-1-methyl-2-oxo-8,9-dihydro-7H-imidazo[4,5-f]quinolin-6-yl]piperidine-1-carbonyl]amino]phenyl]methylsulfonyl]-2,2-dimethyl-4-piperidyl]amino]phenyl]thiophene-2-carboxylic acid], the DC50 (in assay [1]; at PTPN2 (B16F10.4 cells)) was 50 to 200 nM throughout.

For `CC1(C)C[C@@H](Oc2cccc(-c3sc(C(=O)O)c(OCC(=O)O)c3Cl)c2)CCN1S(=O)(=O)Cc1cccc(NC(=O)N2CCC(c3ccc4c5c(cccc35)C(=O)N4C3CCC(=O)NC3=O)CC2)c1` (stereo partly drawn) [Example 228, 3-(carboxymethoxy)-4-chloro-5-(3-(((4S)-1-((3-(4-(1-(2,6-dioxopiperidin-3-yl)-2-oxo-1,2-dihydrobenzo[cd]indol-6-yl)piperidine-1-carboxamido)benzyl)sulfonyl)-2,2-dimethylpiperidin-4-yl)oxy)phenyl)thiophene-2-carboxylic acid], the DC50 in assay [1] was 200 to 1000 nM; at PTPN2 (B16F10.4 cells) it was < 50 nM.

For the molecule `Cn1c(=O)n(C2CCC(=O)NC2=O)c2ccc([C@H]3CC[C@H](C(=O)Nc4cccc(CS(=O)(=O)N5CC[C@H](Nc6cccc(-c7sc(C(=O)O)c(OCC(=O)O)c7Cl)c6)CC5(C)C)c4)CC3)cc21` (stereo partly drawn) [Example 138, 3-(carboxymethoxy)-4-chloro-5-(3-(((4S)-1-((3-((1r,4S)-4-(1-(2,6-dioxopiperidin-3-yl)-3-methyl-2-oxo-2,3-dihydro-1H-benzo[d]imidazol-5-yl)cyclohexane-1-carboxamido)benzyl)sulfonyl)-2,2-dimethylpiperidin-4-yl)amino)phenyl)thiophene-2-carboxylic acid], the half-maximal degradation concentration (DC50) (in assay [1]; at PTPN2 (B16F10.4 cells)) was < 50 nM each time.

For `CCn1c(=O)n(C2CCC(=O)NC2=O)c2ccc(C3CCN(C(=O)Nc4cccc(CS(=O)(=O)N5CC[C@H](Nc6cccc(-c7sc(C(=O)O)c(OCC(=O)O)c7Cl)c6)CC5(C)C)c4)CC3)cc21` (stereo partly drawn) [Example 88, 3-(carboxymethoxy)-4-chloro-5-(3-(((4S)-1-((3-(4-(1-(2,6-dioxopiperidin-3-yl)-3-ethyl-2-oxo-2,3-dihydro-1H-benzo[d]imidazol-5-yl)piperidine-1-carboxamido)benzyl)sulfonyl)-2,2-dimethylpiperidin-4-yl)amino)phenyl)thiophene-2-carboxylic acid], the 50% degradation concentration (DC50) in assay [1] was < 50 nM; at PTPN2 (B16F10.4 cells), 50 to 200 nM.

As for `Cn1c(=O)n(C2CCC(=O)NC2=O)c2ccc(OC3CCN(C(=O)Nc4cccc(CS(=O)(=O)N5CC[C@H](Nc6cccc(-c7sc(C(=O)O)c(OCC(=O)O)c7Cl)c6)CC5(C)C)c4)CC3)cc21` (stereo partly drawn) [Example 118], the DC50 was in the range of 200 to 1000 nM in assay [1] and 50 to 200 nM on PTPN2 (B16F10.4 cells).

Consider `Cn1c(=O)n(C2CCC(=O)NC2=O)c2ccc(C3CCN(C(=O)Nc4cccc(CS(=O)(=O)N5CC[C@@H](Nc6cccc(-c7sc(C(=O)O)c(OCC(=O)O)c7Cl)c6F)CC5(C)C)c4)CC3)cc21` (stereo partly drawn) [Example 135, 3-(carboxymethoxy)-4-chloro-5-[3-[[(4R)-1-[[3-[[4-[1-(2,6-dioxo-3-piperidyl)-3-methyl-2-oxo-benzimidazol-5-yl]piperidine-1-carbonyl]amino]phenyl]methylsulfonyl]-2,2-dimethyl-4-piperidyl]amino]-2-fluoro-phenyl]thiophene-2-carboxylic acid], for which the values for the DC50 (in assay [1]; on PTPN2 (B16F10.4 cells)) were 50 to 200 nM and < 50 nM, respectively.

With `CC1(C)C[C@@H](Nc2cccc(-c3sc(C(=O)O)c(OCC(=O)O)c3Cl)c2)CCN1S(=O)(=O)Cc1cccc(NC(=O)C2CCN(C(=O)COc3cccc4c3CN(C3CCC(=O)NC3=O)C4=O)CC2)c1` (stereo partly drawn) [Example 63, 3-(carboxymethoxy)-4-chloro-5-(3-(((4S)-1-((3-(1-(2-((2-(2,6-dioxopiperidin-3-yl)-1-oxoisoindolin-4-yl)oxy)acetyl)piperidine-4-carboxamido)benzyl)sulfonyl)-2,2-dimethylpiperidin-4-yl)amino)phenyl)thiophene-2-carboxylic acid], the DC50 in assay [1] is 50 to 200 nM; on PTPN2 (B16F10.4 cells), 200 to 1000 nM.

Turning to `O=C(O)COc1c(C(=O)O)sc(-c2cccc(NC3CCN(S(=O)(=O)Cc4cccc(NC(=O)CCOCCCc5cccc6c5C(=O)N(C5CCC(=O)NC5=O)C6=O)c4)CC3)c2)c1Cl` (stereo not drawn) [Example 27, 3-(carboxymethoxy)-4-chloro-5-[3-[[1-[[3-[3-[3-[2-(2,6-dioxo-3-piperidyl)-1,3-dioxo-isoindolin-4-yl]propoxy]propanoylamino]phenyl]methylsulfonyl]-4-piperidyl]amino]phenyl]thiophene-2-carboxylic acid], the DC50 is 200 to 1000 nM in assay [1] and ≥ 1000 nM on PTPN2 (B16F10.4 cells).

Take `Cn1c(=O)n(C2CCC(=O)NC2=O)c2ccc(C3CCN(C(=O)Nc4cccc(CS(=O)(=O)N5CCC(Nc6cc(-c7sc(C(=O)O)c(OCC(=O)O)c7Cl)ccc6F)CC5)c4)CC3)cc21` (stereo not drawn) [Example 121, 3-(carboxymethoxy)-4-chloro-5-[3-[[1-[[3-[[4-[1-(2,6-dioxo-3-piperidyl)-3-methyl-2-oxo-benzimidazol-5-yl]piperidine-1-carbonyl]amino]phenyl]methylsulfonyl]-4-piperidyl]amino]-4-fluoro-phenyl]thiophene-2-carboxylic acid]: the DC50 in assay [1] fell in the range of 200 to 1000 nM; on PTPN2 (B16F10.4 cells), 50 to 200 nM.
